Assay results: PMC2116318 (The Journal of Cell Biology, 1990)

Tests used:
[1] = system: L. pictus eggs (nuclear envelope breakdown); assay: Nuclear envelope breakdown; type: cell-based, L. pictus (sea urchin); settings: for Delay of NEB (fraction of eggs) / Duration of delay of NEB / Normal NEB (fraction of eggs): Table I, injected before fertilization
rat brain CaM kinase [2] = assay: Autophosphorylation of rat brain CaM kinase; type: biochemical; settings: 50 μM peptide in Fig. 5 B
[3] = system: 56-kD α-like egg polypeptide (sea urchin egg CaM kinase); assay: Endogenous phosphorylation in sea urchin egg calmodulin-depleted cytosol; type: biochemical, L. pictus (sea urchin); settings: 50 μM peptide in Fig. 5 A
[4] = system: sea urchin egg CaM kinase; assay: Autocamtide-2 phosphorylation by sea urchin egg extracts; type: biochemical, L. pictus (sea urchin)
rat brain CaM kinase [5] = assay: Autocamtide-2 phosphorylation by purified rat brain CaM kinase; type: biochemical
[6] = higher concentrations, over 4% of the cell volume

delay of NEB in one case ([1]; estimated intracellular concentration 80 μM): 9 min
autophosphorylation of rat brain kinase (effect in words) (rat brain CaM kinase [2]): only slightly inhibited
endogenous phosphorylation of the α-like subunit (effect in words) [3]: only marginally affected
inhibition of egg kinase (in words) ([4]; Discussion summary): very weak inhibitor
phosphorylation of autocamtide-2 (effect in words) ([4]; calmodulin-depleted cytosol fractions, Fig. 4): not affected
inhibitory effects on phosphorylation of autocamtide-2 (in words) ([4]; sea urchin egg extracts, concentrations up to 100 μM, Fig. 4): no apparent inhibitory effects
inhibition of brain kinase (in words) (rat brain CaM kinase [5]; Discussion summary): very weak inhibitor
inhibition of rat brain kinase (in words) (rat brain CaM kinase [5]; Fig. 4): does not inhibit rat brain kinase
Substance: CaMK(284-302): control peptide, lacks a critical region of the autoinhibitory domain and therefore does not inhibit CaM kinase (QETVDCLKKFNARRKLKGA; UniProt P11275 284-302, looked up, fragment)
effect on NEB (in words) ([1]; Discussion summary): minimal effects on NEB
Delay of NEB (fraction of eggs) ([1]; 1.7-3.5% vol, 60-190 μM): 1/9
Duration of delay of NEB ([1]; 1.7-3.5% vol, 60-190 μM): 9 min
Normal NEB (fraction of eggs) ([1]; 1.7-3.5% vol, 60-190 μM): 8/9
Delay of NEB (fraction of eggs) ([1]; 4.1-4.8% vol, 220-260 μM): 3/4
Duration of delay of NEB ([1]; 4.1-4.8% vol, 220-260 μM): 11 to 27 min
Normal NEB (fraction of eggs) ([1]; 4.1-4.8% vol, 220-260 μM): 1/4
NEB (in words) ([1]; control peptide, text on Fig. 6): normal NEB
delay of NEB ([1]; higher concentrations, injection volumes over 4% of the cell volume): 11 to 27 min
cases in which NEB proceeded normally [1, 6]: one case
cases with delayed NEB [1, 6]: three of four
